Measurements: US20250034094A1, “A FAST AND EFFICIENT PROCESS FOR THE PREPARATION OF N-RETINYLIDENE-N-RETINYLETHANOLAMINE (A2E)” (Purdue Research Foundation, priority 2021, published 2025)

Legend:
ARPE19 cells = assay: Cell viability assay (AlamarBlue) of ARPE19 cells treated with A2E lots, with or without inhibitors; format: cell-based; details: RPE cells, 24 hours in the dark
Method: ARPE19 cells from ATCC were plated at 80% confluency in 96-well plates and pre-treated for 1 hour with inhibitors (33 μM Necrostatin 7 (Cayman Chemicals): 2 mM N-acetyl-cysteine (NAC) (Sigma): 50 μg/ml phoroglucinol (Sigma)), after which the medium was supplemented with A2E/ATRD or vehicle (control) and cells were incubated in serum-free OptiMEM (Invitrogen) medium for an additional 23 hours at 37° C. To assess viability, 20 μL of 10× AlamarBlue® (Invitrogen) were added per well, and cells were incubated for an additional hour before reading the fluorescence in SpectraMax M5e (Molecular Devices, CA, USA) using 555 nm excitation/585 nm emission.

[1] = HPLC analysis, cited from earlier work

## CC(C=CC1=C(C)CCCC1(C)C)=CC=CC(C)=Cc1cc(C=CC=C(C)C=CC2=C(C)CCCC2(C)C)cc[n+]1CCO [A2E #1, N-retinylidene-N-retinylethanolamine]
ARPE19 cells; pre-treated with 2 mM N-acetyl-cysteine
  protection from A2E-induced toxicity by antioxidants (NAC): partially protected by antioxidants (NAC)

## CC(C=CC1=C(C)CCCC1(C)C)=CC=CC(C)=Cc1cc(C=CC=C(C)C=CC2=C(C)CCCC2(C)C)cc[n+]1CCO [A2E #3, N-retinylidene-N-retinylethanolamine]
ARPE19 cells; pre-treated with 33 μM Necrostatin 7
  neutralization of A2E toxicity by necroptosis inhibitor Nec7: better neutralized with the necroptosis inhibitor, Nec7

## CC(C=CC1=C(C)CCCC1(C)C)=CC=CC(C)=Cc1cc(C=CC=C(C)C=CC2=C(C)CCCC2(C)C)cc[n+]1CCO [A2E, N-retinylidene-N-retinylethanolamine]
[1]; solvents THF, CHCl3 or EtOH
  stability in THF, CHCl3 or EtOH: not stable
[1]; solvents methanol and DMSO
  stability in methanol and DMSO: stable
